Source: patent US12233161B1, “Lipids and lipid nanoparticle formulations” (LONGUIDE BIOPHARMA CORPORATION, priority 2024, dated 2025)

What was measured:
[1] = tested on: mice; experiment: In vivo delivery of FLuc-mRNA lipid nanoparticles in mice, in vivo imaging (IVIS); details: for IVIS: Fluc-mRNA
How it was run: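 Mice (n=3) received about 75 μL FLuc-mRNA LNP per mouse intramuscularly (rectus femoris), intravenously (tail vein), intraperitoneally or subcutaneously (back). After injection, D-luciferin (200 μL, 15 mg/mL) was given i.p. 10-15 min before IVIS imaging.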

[2] = Particle size and PDI of nucleic acid lipid nanoparticle preparations by dynamic light scattering; assay type: physicochemical
How it was run: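 LNP solution (about 0.04 mg/mL mRNA before dilution) was diluted in ultrapure water and mixed by gentle pipetting. Particle size and PDI were then measured by dynamic light scattering.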

[3] = Potential characterization of nucleic acid lipid nanoparticle preparations; assay type: physicochemical
Procedure: 20 μL of the nucleic acid lipid nanoparticle solution (containing about 0.04 mg/mL mRNA) was taken and added with 780 μL of ultrapure water, used a pipette tip to gently blow and mix, and the potential of the nanopreparation was detected by Malvern particle sizer (model ZEN3700).
27.5 μL nucleic acid lipid nanoparticle solution (containing about 0.04 mg/mL mRNA) was taken and added with 200 μL ultrapure water. A pipette tip was used to gently blow the sample and mix well. The particle size of the nanopreparation was detected by Malvern Dynamic Light Scattering Instrument (Malvern Instruments Ltd., ZEN3700, UK). After the detection, the sample was recovered to an EP tube, and 600 μL of ultrapure water was added, gently blown with a pipette tip, and the potential of the nanopreparation was measured by a Malvern particle size meter.

[4] = IM, DMG-PEG2000:DSPC:Chol:compound 1.40:11.15:38.95:48.50, N/P 30
[5] = DMG-PEG2000:DSPC:Chol:compound 1.40:11.15:38.95:48.50, N/P 30
[6] = IV, body, DMG-PEG2000:DSPC:Chol:compound 1.00:10.00:33.00:56.00, N/P 42
[7] = IV, body, DMG-PEG2000:DSPC:Chol:compound 1.40:11.15:38.95:48.50, N/P 30
[8] = IV, liver, DMG-PEG2000:DSPC:Chol:compound 1.00:10.00:33.00:56.00, N/P 42
[9] = IV, liver, DMG-PEG2000:DSPC:Chol:compound 1.40:11.15:38.95:48.50, N/P 30
[10] = IV, lung, DMG-PEG2000:DSPC:Chol:compound 1.00:10.00:33.00:56.00, N/P 42
[11] = IV, lung, DMG-PEG2000:DSPC:Chol:compound 1.40:11.15:38.95:48.50, N/P 30
[12] = IV, spleen, DMG-PEG2000:DSPC:Chol:compound 1.00:10.00:33.00:56.00, N/P 42
[13] = IV, spleen, DMG-PEG2000:DSPC:Chol:compound 1.40:11.15:38.95:48.50, N/P 30
[14] = DMG-PEG2000:DSPC:Chol:compound 1.00:10.00:33.00:56.00, N/P 42
[15] = DMG-PEG2000:DSPC:Chol:compound 1.40:11.15:38.95:48.50, N/P 20
[16] = IM, DMG-PEG2000:DSPC:Chol:compound 1.40:11.15:38.95:48.50, N/P 40
[17] = IV, body, DMG-PEG2000:DSPC:Chol:compound 1.40:11.15:38.95:48.50, N/P 40
[18] = IV, liver, DMG-PEG2000:DSPC:Chol:compound 1.40:11.15:38.95:48.50, N/P 40
[19] = IV, lung, DMG-PEG2000:DSPC:Chol:compound 1.40:11.15:38.95:48.50, N/P 40
[20] = IV, spleen, DMG-PEG2000:DSPC:Chol:compound 1.40:11.15:38.95:48.50, N/P 40
[21] = DMG-PEG2000:DSPC:Chol:compound 1.40:11.15:38.95:48.50, N/P 40
[22] = IV, liver, DMG-PEG2000:DSPC:Chol:compound 1.00:10.00:33.00:56.00, N/P 35.5
[23] = IV, lung, DMG-PEG2000:DSPC:Chol:compound 1.00:10.00:33.00:56.00, N/P 35.5
[24] = IV, spleen, DMG-PEG2000:DSPC:Chol:compound 1.00:10.00:33.00:56.00, N/P 35.5
[25] = DMG-PEG2000:DSPC:Chol:compound 1.00:10.00:33.00:56.00, N/P 35.5

## CCCCCCCCCCCCNC(=O)C(O)CNCCN(C)CCN(CC(O)C(=O)NCCCCCCCCCCCC)CC(O)C(=O)NCCCCCCCCCCCC (stereo not drawn) [Compound L0290]
[1]; [4]
  IVIS: 3.06E+05
[1]; IV, organ not given, DMG-PEG2000:DSPC:Chol:compound 1.40:11.15:38.95:48.50, N/P 30
  IVIS: 1.18E+06
[2]; [5]
  PDI: 0.17
  Particle size (nm): 89.51 nm
[3]; [5]
  Zeta potential (mV): 15.97 mV

## CCCCCCC(CCCCCC)C(=O)OCCCCCCOC(=O)C(O)CN(C)CCN(C)CCN(C)CC(O)C(=O)OCCCCCCOC(=O)C(CCCCCC)CCCCCC (stereo not drawn) [Compound L0291]
[1]; [4]
  IVIS: 1.87E+07
[1]; [6]
  IVIS: 2.60E+07
[1]; [7]
  IVIS: 1.83E+07
[1]; [8]
  % of organ targeting: 5.08%
  IVIS: 1.32E+06
[1]; [9]
  % of organ targeting: 61.07%
  IVIS: 3.30E+06
[1]; [10]
  % of organ targeting: 5.76%
  IVIS: 1.50E+06
[1]; [11]
  % of organ targeting: 3.97%
  IVIS: 2.14E+05
[1]; [12]
  % of organ targeting: 89.17%
  IVIS: 2.32E+07
[1]; [13]
  % of organ targeting: 34.97%
  IVIS: 1.89E+06
[2]; [14]
  PDI: 0.13
  Particle size (nm): 221.70 nm
[2]; [5]
  PDI: 0.17
  Particle size (nm): 259.67 nm
[3]; [5]
  Zeta potential (mV): 15.07 mV

## CCCCCCCCC(CCCCCC)C(=O)OCCCCCCOC(=O)C(O)CN(C)CCN(C)CCN(C)CC(O)C(=O)OCCCCCCOC(=O)C(CCCCCC)CCCCCCCC (stereo not drawn) [Compound L0292]
[1]; [4]
  IVIS: 1.05E+05
[1]; [7]
  IVIS: 9.82E+06
[1]; [9]
  % of organ targeting: 25.18%
  IVIS: 3.22E+06
[1]; [11]
  % of organ targeting: 16.03%
  IVIS: 2.05E+06
[1]; [13]
  % of organ targeting: 58.80%
  IVIS: 7.53E+06
[2]; [5]
  PDI: 0.22
  Particle size (nm): 151.20 nm
[3]; [5]
  Zeta potential (mV): 13.33 mV

## CCCCCCC(CCCCCC)C(=O)OCCCCOC(=O)C(O)CN(CCCN(C)CCCN(CC(O)C(=O)OCCCCOC(=O)C(CCCCCC)CCCCCC)CC(O)C(=O)OCCCCOC(=O)C(CCCCCC)CCCCCC)CC(O)C(=O)OCCCCOC(=O)C(CCCCCC)CCCCCC (stereo not drawn) [Compound L0294]
[1]; [4]
  IVIS: 3.81E+07
[1]; [7]
  IVIS: 3.72E+08
[1]; [9]
  % of organ targeting: 38.21%
  IVIS: 5.13E+07
[1]; [11]
  % of organ targeting: 7.55%
  IVIS: 1.01E+07
[1]; [13]
  % of organ targeting: 54.25%
  IVIS: 7.28E+07
[2]; [5]
  PDI: 0.13
  Particle size (nm): 129.13 nm
[3]; [5]
  Zeta potential (mV): 9.23 mV

## CCCCCCCCC(CCCCCC)C(=O)OCCCCCCOC(=O)C(O)CN(CCCN(C)CCCN(CC(O)C(=O)OCCCCCCOC(=O)C(CCCCCC)CCCCCCCC)CC(O)C(=O)OCCCCCCOC(=O)C(CCCCCC)CCCCCCCC)CC(O)C(=O)OCCCCCCOC(=O)C(CCCCCC)CCCCCCCC (stereo not drawn) [Compound L0295]
[1]; [4]
  IVIS: 5.87E+07
[1]; [7]
  IVIS: 9.48E+07
[1]; [9]
  % of organ targeting: 33.17%
  IVIS: 2.38E+07
[1]; [11]
  % of organ targeting: 5.87%
  IVIS: 4.20E+06
[1]; [13]
  % of organ targeting: 60.96%
  IVIS: 4.37E+07
[2]; [5]
  PDI: 0.10
  Particle size (nm): 135.33 nm
[3]; [5]
  Zeta potential (mV): 10.63 mV

## CCCCCCOC(C)OCCCCCCOC(=O)C(O)CN(C)CCN(C)CCN(C)CC(O)C(=O)OCCCCCCOC(C)OCCCCCC (stereo not drawn) [Compound L0300]
[1]; IM, DMG-PEG2000:DSPC:Chol:compound 1.40:11.15:38.95:48.50, N/P 20
  IVIS: 1.09E+06
[1]; IV, organ not given, DMG-PEG2000:DSPC:Chol:compound 1.40:11.15:38.95:48.50, N/P 20
  IVIS: 7.12E+05
[2]; [15]
  PDI: 0.13
  Particle size (nm): 157.77 nm
[3]; [15]
  Zeta potential (mV): 5.14 mV

## CCCCCCCCCCCCNC(=O)C(O)CN(CCCN(CCCN(CC(O)C(=O)NCCCCCCCCCCCC)CC(O)C(=O)NCCCCCCCCCCCC)CC(O)C[N+](C)(C)C)CC(O)C(=O)NCCCCCCCCCCCC (stereo not drawn) [Compound L0302]
[1]; [16]
  IVIS: 6.87E+05
[1]; [17]
  IVIS: 4.41E+06
[1]; [18]
  % of organ targeting: 1.31%
  IVIS: 2.05E+05
[1]; [19]
  % of organ targeting: 97.12%
  IVIS: 1.52E+07
[1]; [20]
  % of organ targeting: 1.57%
  IVIS: 2.47E+05
[2]; [21]
  PDI: 0.21
  Particle size (nm): 132.07 nm
[3]; [21]
  Zeta potential (mV): 16.93 mV

## CCCCCCCCCCCCNCC(O)CN(CCCCCN(C)CCCCCN(CC(O)CNCCCCCCCCCCCC)CC(O)C(=O)NCCCCCCCCCCCC)CC(O)C(=O)NCCCCCCCCCCCC (stereo not drawn) [Compound L0303]
[1]; [4]
  IVIS: 9.76E+05
[1]; [6]
  IVIS: 2.40E+08
[1]; [7]
  IVIS: 1.33E+08
[1]; [8]
  % of organ targeting: 0.64%
  IVIS: 2.70E+06
[1]; [9]
  % of organ targeting: 2.25%
  IVIS: 7.60E+06
[1]; [10]
  % of organ targeting: 98.72%
  IVIS: 4.17E+08
[1]; [11]
  % of organ targeting: 96.16%
  IVIS: 3.25E+08
[1]; [12]
  % of organ targeting: 0.64%
  IVIS: 2.70E+06
[1]; [13]
  % of organ targeting: 1.59%
  IVIS: 5.38E+06
[2]; [14]
  PDI: 0.09
  Particle size (nm): 132.10 nm
[2]; [5]
  PDI: 0.10
  Particle size (nm): 122.57 nm
[3]; [5]
  Zeta potential (mV): 12.97 mV

## CCCCCCCCCCNC(=O)C(O)CN(CCCN(CCCN(CCO)CCO)CCCN(CC(O)C(=O)NCCCCCCCCCC)CC(O)C(=O)NCCCCCCCCCC)CC(O)C(=O)NCCCCCCCCCC (stereo not drawn) [Compound L0304]
[1]; [16]
  IVIS: 3.48E+05
[1]; IV, body, DMG-PEG2000:DSPC:Chol:compound 1.00:10.00:33.00:56.00, N/P 35.5
  IVIS: 9.15E+06
[1]; [17]
  IVIS: 1.29E+07
[1]; [22]
  % of organ targeting: 2.63%
  IVIS: 6.18E+05
[1]; [18]
  % of organ targeting: 2.30%
  IVIS: 7.31E+05
[1]; [23]
  % of organ targeting: 90.44%
  IVIS: 2.12E+07
[1]; [19]
  % of organ targeting: 90.53%
  IVIS: 2.87E+07
[1]; [24]
  % of organ targeting: 6.93%
  IVIS: 1.62E+06
[1]; [20]
  % of organ targeting: 7.17%
  IVIS: 2.27E+06
[2]; [25]
  PDI: 0.15
  Particle size (nm): 121.27 nm
[2]; [21]
  PDI: 0.14
  Particle size (nm): 101.73 nm
[3]; [21]
  Zeta potential (mV): 11.93 mV
